Among the data in ChEMBL document CHEMBL3046855, “Chemical control of Prosopis farcta (Banks and Sol.) Macbride in the Jordan Valley” (2007) are Activity values, retold here.

What all share (type): functional
The test system of assay [1] is Prosopis farcta. Put plainly: Herbicidal activity against Prosopis farcta assessed as shoot dry weight at 1000 l/ha applied twice followed by harvest measured after vegetative regrowth (reference value: 2.784 metric tons/ha).
In assay [2] the test system is Prosopis farcta. As to the kind of experiment: Herbicidal activity against Prosopis farcta assessed as shoot fresh weight at 1000 l/ha applied twice followed by harvest measured after vegetative regrowth (reference value: 3.53 metric tons/ha).
The test system of assay [3] is Prosopis farcta. As to the kind of experiment: Herbicidal activity against Prosopis farcta assessed as shoot dry weight at 1000 l/ha applied twice (reference value: 1.528 metric tons/ha).
In assay [4] the test system is Prosopis farcta. Put plainly: Herbicidal activity against Prosopis farcta assessed as shoot fresh weight at 1000 l/ha applied twice (reference value: 4.18 metric tons/ha).
For assay [5], the system named is Prosopis farcta. As to the kind of experiment: Herbicidal activity against Prosopis farcta assessed as shoot dry weight at 1000 l/ha applied once followed by harvest measured after vegetative regrowth (reference value: 1.593 metric tons/ha).
The test system of assay [6] is Prosopis farcta. As to the kind of experiment: Herbicidal activity against Prosopis farcta assessed as shoot fresh weight at 1000 l/ha applied once followed by harvest measured after vegetative regrowth (reference value: 2.062 metric tons/ha).
The test system of assay [7] is Prosopis farcta. Put plainly: Herbicidal activity against Prosopis farcta assessed as shoot dry weight at 1000 l/ha applied once (reference value: 0.833 metric tons/ha).
The test system of assay [8] is Prosopis farcta. As to the kind of experiment: Herbicidal activity against Prosopis farcta assessed as shoot fresh weight at 1000 l/ha applied once (reference value: 1.72 metric tons/ha).

SMILES strings stand for the structures.

On to `CCCCC(CC)COC(=O)COc1ccc(Cl)cc1Cl` (stereo unspecified), for which the Activity in the assay with Prosopis farcta [1] worked out at 0.063 MT/ha; with Prosopis farcta [2] it was 0.1 MT/ha; in the assay with Prosopis farcta [3], 0.365 MT/ha; in the assay on Prosopis farcta [4] it was 0.8 MT/ha; in the assay with Prosopis farcta [5], 0.213 MT/ha; in the assay with Prosopis farcta [6], 0.277 MT/ha. In addition, the Activity amounted to 0.625 MT/ha with Prosopis farcta [7] and 1.33 MT/ha in the assay with Prosopis farcta [8].

With `CNC.O=C(O)COc1ccc(Cl)cc1Cl` [2,4-D-Dimethylammonium], the Activity in the assay on Prosopis farcta [1] was 0.511 MT/ha; in the assay on Prosopis farcta [2] it was 0.58 MT/ha; with Prosopis farcta [3], 0.345 MT/ha; with Prosopis farcta [4], 0.8 MT/ha; with Prosopis farcta [5], 0.144 MT/ha; with Prosopis farcta [6], 0.323 MT/ha. Besides, the results for the Activity in the assay with Prosopis farcta [7] and in the assay with Prosopis farcta [8] were 0.593 MT/ha and 1.27 MT/ha, respectively.

Regarding `O=C(O)CNCP(=O)(O)O` [GLYPHOSATE], the Activity with Prosopis farcta [1] turned out to be 0.976 MT/ha; with Prosopis farcta [2], 1.23 MT/ha; in the assay on Prosopis farcta [3], 0.32 MT/ha; with Prosopis farcta [4], 0.71 MT/ha; in the assay with Prosopis farcta [5], 0.317 MT/ha; in the assay with Prosopis farcta [6], 0.432 MT/ha. Moreover, the Activity in the assay on Prosopis farcta [7] is recorded as 0.491 MT/ha; with Prosopis farcta [8], 1.05 MT/ha.

As for `Cc1cc(Cl)ccc1OC(C)C(=O)O` (stereo unspecified) [MECOPROP], the Activity with Prosopis farcta [1] is 1.125 MT/ha; in the assay on Prosopis farcta [2], 1.46 MT/ha; in the assay on Prosopis farcta [3] it was 0.403 MT/ha; in the assay with Prosopis farcta [4], 0.93 MT/ha; in the assay with Prosopis farcta [5], 0.527 MT/ha; in the assay with Prosopis farcta [6], 0.655 MT/ha. The Activity is on record as 0.423 MT/ha in the assay on Prosopis farcta [7] and 0.9 MT/ha in the assay on Prosopis farcta [8].

With `CCOc1cc(Oc2ccc(C(F)(F)F)cc2Cl)ccc1[N+](=O)[O-]` [OXYFLUORFEN], the Activity in the assay on Prosopis farcta [1] was found to be 1.147 MT/ha; in the assay with Prosopis farcta [2] it was 1.47 MT/ha; with Prosopis farcta [3] it was 0.479 MT/ha; in the assay with Prosopis farcta [4] it was 0.96 MT/ha; in the assay on Prosopis farcta [5], 3.481 MT/ha; with Prosopis farcta [6] it was 4.511 MT/ha. Also, the Activity in the assay with Prosopis farcta [7] is reported as 0.26 MT/ha; in the assay on Prosopis farcta [8], 0.6 MT/ha.

For `C[n+]1ccc(-c2cc[n+](C)cc2)cc1` [PARAQUAT], the Activity in the assay with Prosopis farcta [1] amounted to 0.764 MT/ha; in the assay on Prosopis farcta [2], 0.91 MT/ha; in the assay on Prosopis farcta [3] it was 0.404 MT/ha; in the assay with Prosopis farcta [4], 0.93 MT/ha; in the assay on Prosopis farcta [5], 0.647 MT/ha; in the assay with Prosopis farcta [6] it was 0.757 MT/ha. The Activity is 0.593 MT/ha in the assay on Prosopis farcta [7] and 1.27 MT/ha with Prosopis farcta [8].

On to `O=C(O)COc1nc(Cl)c(Cl)cc1Cl` [TRICLOPYR], for which the Activity in the assay with Prosopis farcta [1] was found to be 0.05 MT/ha; with Prosopis farcta [2], 0.05 MT/ha; with Prosopis farcta [3] it was 0.461 MT/ha; in the assay with Prosopis farcta [4], 1.07 MT/ha; in the assay on Prosopis farcta [5], 0.231 MT/ha; in the assay on Prosopis farcta [6], 0.301 MT/ha. The Activity amounted to 0.567 MT/ha in the assay on Prosopis farcta [7] and 1.21 MT/ha in the assay with Prosopis farcta [8].
